These results are taken from article PMC8217266 (Clinical Pharmacology and Therapeutics, 2021).

Molecules are shown by their SMILES.

Data set [1] has as its target T1, human OATP1B1 (Homo sapiens, UniProt Q9Y6L6).
T1 sequence (Q9Y6L6 1-691): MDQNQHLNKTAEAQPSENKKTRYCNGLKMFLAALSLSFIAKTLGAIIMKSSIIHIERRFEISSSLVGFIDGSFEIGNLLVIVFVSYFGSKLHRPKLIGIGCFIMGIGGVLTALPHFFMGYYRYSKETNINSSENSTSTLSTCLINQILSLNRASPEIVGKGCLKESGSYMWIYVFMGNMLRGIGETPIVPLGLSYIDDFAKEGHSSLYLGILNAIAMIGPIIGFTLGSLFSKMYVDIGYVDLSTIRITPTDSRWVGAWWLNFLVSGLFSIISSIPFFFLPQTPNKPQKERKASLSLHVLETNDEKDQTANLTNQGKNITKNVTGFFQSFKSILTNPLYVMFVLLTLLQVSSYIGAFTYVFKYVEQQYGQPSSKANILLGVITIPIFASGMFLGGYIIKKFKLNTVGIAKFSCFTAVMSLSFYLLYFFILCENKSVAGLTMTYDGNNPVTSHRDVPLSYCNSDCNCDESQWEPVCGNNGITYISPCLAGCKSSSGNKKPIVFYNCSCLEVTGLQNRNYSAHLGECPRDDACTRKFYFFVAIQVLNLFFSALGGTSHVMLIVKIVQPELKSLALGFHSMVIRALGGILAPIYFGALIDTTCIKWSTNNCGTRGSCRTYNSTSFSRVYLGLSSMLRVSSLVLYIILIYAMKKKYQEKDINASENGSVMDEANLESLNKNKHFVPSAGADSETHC
Particulars: for potency difference of the inhibitor for [3H]-EG vs [3H]-ES as OATP1B1 probes: inhibits EG at one-tenth (or lower) the concentration that inhibits ES.

The target in data set [2] is T2, BCRP (Homo sapiens, UniProt Q9UNQ0).
T2 sequence (Q9UNQ0 1-655): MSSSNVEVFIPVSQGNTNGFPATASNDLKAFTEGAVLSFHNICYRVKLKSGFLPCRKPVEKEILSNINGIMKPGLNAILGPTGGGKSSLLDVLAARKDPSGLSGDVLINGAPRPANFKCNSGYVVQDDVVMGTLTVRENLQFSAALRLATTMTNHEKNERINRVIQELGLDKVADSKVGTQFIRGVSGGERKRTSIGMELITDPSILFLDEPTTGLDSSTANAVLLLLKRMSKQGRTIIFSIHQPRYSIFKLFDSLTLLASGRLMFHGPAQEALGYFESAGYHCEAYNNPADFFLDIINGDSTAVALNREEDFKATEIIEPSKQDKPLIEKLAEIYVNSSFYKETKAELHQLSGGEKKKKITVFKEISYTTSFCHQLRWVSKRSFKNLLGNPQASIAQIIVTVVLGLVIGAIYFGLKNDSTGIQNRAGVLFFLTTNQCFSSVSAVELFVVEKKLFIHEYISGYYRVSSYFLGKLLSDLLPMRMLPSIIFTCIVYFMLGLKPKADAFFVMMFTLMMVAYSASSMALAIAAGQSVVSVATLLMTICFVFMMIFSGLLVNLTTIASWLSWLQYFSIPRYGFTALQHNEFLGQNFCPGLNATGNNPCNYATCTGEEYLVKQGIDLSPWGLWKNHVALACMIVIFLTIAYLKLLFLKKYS
In words: biochemical.

The target in data set [3] is T3, human OAT3 (Homo sapiens, UniProt Q8TCC7).
T3 sequence (Q8TCC7 1-542): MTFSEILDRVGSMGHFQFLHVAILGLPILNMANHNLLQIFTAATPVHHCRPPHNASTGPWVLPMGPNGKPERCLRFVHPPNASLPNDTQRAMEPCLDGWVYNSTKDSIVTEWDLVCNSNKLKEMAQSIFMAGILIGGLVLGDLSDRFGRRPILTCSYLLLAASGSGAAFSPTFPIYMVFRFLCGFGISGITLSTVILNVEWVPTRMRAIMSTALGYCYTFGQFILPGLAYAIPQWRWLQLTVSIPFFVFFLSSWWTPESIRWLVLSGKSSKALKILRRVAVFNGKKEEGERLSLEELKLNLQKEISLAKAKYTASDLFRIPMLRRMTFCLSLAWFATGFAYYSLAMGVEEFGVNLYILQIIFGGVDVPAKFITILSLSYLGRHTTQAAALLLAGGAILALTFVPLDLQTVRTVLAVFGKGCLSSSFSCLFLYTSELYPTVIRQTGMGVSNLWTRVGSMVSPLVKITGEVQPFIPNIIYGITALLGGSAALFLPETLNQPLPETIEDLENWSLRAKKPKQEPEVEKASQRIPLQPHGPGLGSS
Particulars: for Cu,max/IC50 OAT3: human.

The target of data set [4] is T4, human MATE1 (Homo sapiens, UniProt Q96FL8).
T4 sequence (Q96FL8 1-570): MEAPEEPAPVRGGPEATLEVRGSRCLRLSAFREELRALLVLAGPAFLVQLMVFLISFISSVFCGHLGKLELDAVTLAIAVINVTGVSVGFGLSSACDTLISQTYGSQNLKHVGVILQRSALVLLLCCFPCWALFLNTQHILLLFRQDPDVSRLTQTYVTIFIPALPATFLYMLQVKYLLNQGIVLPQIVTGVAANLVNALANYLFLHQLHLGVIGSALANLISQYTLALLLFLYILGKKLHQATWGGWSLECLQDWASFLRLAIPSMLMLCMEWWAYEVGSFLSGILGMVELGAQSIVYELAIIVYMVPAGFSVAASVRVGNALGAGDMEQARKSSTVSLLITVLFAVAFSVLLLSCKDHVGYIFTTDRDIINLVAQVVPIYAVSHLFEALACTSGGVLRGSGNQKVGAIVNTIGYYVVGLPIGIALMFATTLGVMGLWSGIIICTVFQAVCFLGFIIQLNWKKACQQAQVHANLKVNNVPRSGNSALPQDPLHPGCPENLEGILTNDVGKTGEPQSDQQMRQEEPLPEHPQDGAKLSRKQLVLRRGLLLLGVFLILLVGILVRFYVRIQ

The IC50 is the midpoint of a concentration-inhibition curve. Lower therefore signals higher potency. For the compound `CC(C)CN(C[C@@H](O)[C@H](Cc1ccccc1)NC(=O)O[C@H]1CO[C@H]2OCC[C@H]21)S(=O)(=O)c1ccc(N)cc1` [Darunavir], the “potency difference of the inhibitor for [3H]-EG vs [3H]-ES as OATP1B1 probes” value in data set [1] was > 10 fold. The IC50 in data set [2] is > 100 µM.

On to `CCC(CC)COC(=O)[C@H](C)N[P@](=O)(OC[C@H]1O[C@@](C#N)(c2ccc3c(N)ncnn23)[C@H](O)[C@@H]1O)Oc1ccccc1` [Remdesivir], for which the “potency difference of the inhibitor for [3H]-EG vs [3H]-ES as OATP1B1 probes” value in data set [1] is on record as > 10 fold. This compound also had an IC50 in data set [2] of 25 ± 6 µM.

With `N#CC[C@H](C1CCCC1)n1cc(-c2ncnc3[nH]ccc23)cn1` [Ruxolitinib], in data set [3], the “OAT3 inhibited more potently relative to OAT1” value is ≥ 10 fold and the “Cu,max/IC50 OAT3” value is on record as 0.005. Also, the “Cu,max/IC50 MATE1” value in data set [4] was 0.04. For the same compound, the IC50 in data set [2] was > 100 µM.

Regarding `CCCc1nn(C)c2c(=O)[nH]c(-c3cc(S(=O)(=O)N4CCN(C)CC4)ccc3OCC)nc12` [Sildenafil], in data set [3], the “OAT3 inhibited more potently relative to OAT1” value is ≥ 10 fold and the “Cu,max/IC50 OAT3” value is reported as 0.002. Further, the “Cu,max/IC50 MATE1” value in data set [4] worked out at 0.02. In data set [2], this compound came in with an IC50 of 3.1 ± 2.5 µM.

With `CCOC(=O)c1c(CSc2ccccc2)n(C)c2cc(Br)c(O)c(CN(C)C)c12` [Umifenovir (Arbidol), Umifenovir], the “Cu,max/IC50 OAT3” value in data set [3] is listed as 0.002. For the same compound, the “Iu,in,max/IC50 OATP1B1” value in data set [1] (human) is listed as 0.93. Besides, the “Cu,max/IC50 MATE1” value in data set [4] is listed as 0.13. Besides, the IC50 in data set [2] was > 100 µM.
